Measured values taken from US20100041594A1, “Use of Aplidine for the Treatment of Pancreatic Cancer” (Pharma Mar, S.A., priority 2001, published 2010).
Marks after values point to notes of the source that are not given here. Starred links: 1 amine or outer side, 2 acyl side, 3 side chain; linkers in the order of their positions; H or OH if unused. Positions of bridges follow the written chain, without caps; N, C: chain ends. Non-standard residues stand in square brackets, D forms with d. Residues, ends and D or L forms follow the SMILES beside them. *: point of attachment. X1 = CC[C@H](C)[C@@H](N[*:1])[C@@H](O)CC(=O)O[C@H](C(=O)[C@H](C)C(=O)[*:2])C(C)C; NMeY = CN[C@@H](Cc1ccc(O)cc1)C(=O)O; dNMeL = CN[C@H](CC(C)C)C(=O)O; Pyruvoyl = CC(=O)C(=O)*

How the values were obtained:
[1] = tested on: lewis lung carcinomas; conditions: cited from earlier work
[2] = Stability of aplidine solution and lyophilised dosage form; type: physicochemical
Description: In a currently preferred embodiment freeze-drying was performed from a […] solution of aplidine in 40% (v/v) tert-butanol in Water for Injection (Wfl) containing 25 mg/mL D-mannitol as bulking agent. […] Both reconstituted product and dilutions (up to 1:100 v/v) of the reconstituted product with normal saline appeared to be stable for at least 24 hours after preparation.

[3] = tested on: NP9 human pancreatic carcinoma; experiment: NP9 human pancreatic carcinoma xenograft, primary tumour; type: in vivo, Nu/Nu Swiss mice; conditions: for Solid tumour weight (g) / Total tumour weight (g): 0.8 mg/kg q4d ip
Text: (§1) Aplidine is a new cyclic depsipeptide with anticancer activity in vitro and in vivo in different tumour types, but it has not been tested in pancreatic carcinoma. Nevertheless, this pathology has a poor prognosis because of difficult early diagnosis, aggressiveness and lack of effective systemic therapies. Most patients die of metastases present at diagnosis. We compared the antitumour effect of aplidine against 2 human pancreatic carcinomas, NP9 and NP18, using orthotopic (ORP) and subcutaneous (SC) tumour implantation models. […] METHODS: Groups of ten male Nu/Nu Swiss mice (4 wk old) were treated with vehicle or aplidine. To evaluate primary tumour response, ip aplidine was given, starting 2 weeks (wk) after implantation, at 0.8 mg/kg q4d for 4 wk (NP9) or at 0.8 mg/kg q4d for 6 wk, ceasing treatment the 4th and 5th wk (NP18). To evaluate the response of NP9 metastasis aplidine regime was 0.8 mg/kg q4d per 3 doses, starting 4 weeks after implantation. We measured final tumour weight, macroscopic viability (viable cortex/total tumour weight), microscopic necrosis, apoptotic induction and signal transduction. […] This effect was due to apoptotic induction leading to a reduced number of viable cells in both tumours. Apoptotic induction on NP18 was associated with PARP cleavage and reduced AKT activation, only in ORT-treated tumours. aplidine induced a decrease in cyclins B1 and D1 and FAK expression only in ORT NP9-treated tumours. […] CONCLUSIONS: The use of an ORT implantation model permitted the observation of the antitumour effect of aplidine on primary tumours and metastases of human pancreatic carcinomas. aplidine altered apoptotic and proliferative pathways, which could explain its antitumour effect.
(§2) We used two human pancreatic carcinomas (NP18 and NP9) perpetuated as orthotopic xenografts in nude mice. NP9 produce an extensive peritoneal dissemination 4-5 weeks after implantation (metastatic). We implanted these tumours in four week-old male Nu/Nu Swiss mice (Charles River), housed in autoclaved cages and provided y-ray sterilized bedding and food. They were anesthetized with 2,2,2-tribromoethanol (Sigma-Aldrich) and 10 mg fragments of each tumour from previous passages were implanted orthotopically (ORT, at the pancreas). Xenografted animals were randomly distributed in control (n=10) and experimental (n=10) groups just before treatment. We excluded animals bearing non palpable tumours after ORT implantation, or with tumour volumes lower than 0.13 cm^3 (0.5 cm in diameter). Treatment schedule depended on tumour growth rate. In the fast growing NP9 tumour, two schedules of treatment were used. In one, treatment started two weeks after tumour implantation, before peritoneal dissemination had occurred. Each animal in the experimental group received ip administrations of aplidine at a dose of 0.8 mg/Kg q4d per four weeks. In the other schedule, treatment started four weeks after tumour implantation, once peritoneal dissemination had occurred, with a regime of aplidine of 0.8 mg/Kg q4d per three doses. The existence of macroscopically visible implants was confirmed one day before the treatment begun, by the sacrifice of one extra animal. In the NP18 tumour, treatment started 4 weeks after tumour implantation and the schedule of aplidine was 0.8 mg/Kg q4d ip for 4 weeks, ceasing treatment for two weeks, and continuing with 0.8 mg/Kg q4d ip for two additional weeks. The animals in the corresponding control groups received i.p. administrations of vehicle following the same schedule. After implantation, and during treatment, mice were inspected twice a week and weighted weekly to monitor for compound toxicity.
(§3) At the end of treatment, animals were euthanized and dissemination recorded. Primary tumours were excised and weighted in all groups. Tumor aliquots were frozen down in liquid nitrogen or fixed in formaline. We counted the number of peritoneal implants in each animal and took samples for histological and molecular analysis. […]

[4] = tested on: NP18 human pancreatic carcinoma; experiment: NP18 human pancreatic carcinoma xenograft, primary tumour; type: in vivo, Nu/Nu Swiss mice; conditions: for Total tumour weight (g): 0.8 mg/kg q4d ip
Text: as §1, §2, §3

[5] = tested on: NP9 peritoneal implants; experiment: NP9 peritoneal metastases after orthotopic implantation; type: in vivo, Nu/Nu Swiss mice
Text: as §1, §2, §3

[6] = tested on: MDA-MB231; conditions: aplidine 50 nmol/L; cited from earlier work
[7] = tested on: MCF-7; conditions: aplidine 50 nmol/L; cited from earlier work
[8] = tested on: CT-1, CT-2 and HT-29 cell lines; conditions: CT-1, CT-2, HT-29; cited from earlier work
[9] = molecular target: T1, ornithine decarboxylase (Homo sapiens, UniProt P11926); conditions: all three cell lines; cited from earlier work
T1 construct: endogenous in cells; host or cells: CT-1, CT-2 and HT-29 colon cell lines
T1 sequence (P11926 1-461): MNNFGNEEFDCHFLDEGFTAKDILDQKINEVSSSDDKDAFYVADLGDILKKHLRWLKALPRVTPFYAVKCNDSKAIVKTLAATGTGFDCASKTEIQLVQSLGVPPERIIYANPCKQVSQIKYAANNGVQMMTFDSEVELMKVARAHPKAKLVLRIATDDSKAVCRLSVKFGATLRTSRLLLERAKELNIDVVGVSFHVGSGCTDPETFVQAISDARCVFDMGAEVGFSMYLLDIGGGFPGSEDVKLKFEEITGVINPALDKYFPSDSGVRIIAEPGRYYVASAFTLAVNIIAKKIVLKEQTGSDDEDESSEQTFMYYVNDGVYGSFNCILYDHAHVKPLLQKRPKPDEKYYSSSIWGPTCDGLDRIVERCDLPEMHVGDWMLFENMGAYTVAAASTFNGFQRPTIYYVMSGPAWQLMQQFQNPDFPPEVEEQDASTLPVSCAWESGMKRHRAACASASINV

[10] = tested on: Non-small cell lung cancer, breast cancer and melanoma cell lines; conditions: continuous exposure; cited from earlier work
[11] = tested on: human cancer xenografts; conditions: cited from earlier work
[12] = tested on: gastric tumours; conditions: 1.25 mg/kg; cited from earlier work
[13] = tested on: prostate tumour; conditions: 1.25 mg/kg; cited from earlier work
[14] = tested on: P388 leukaemia and B 16 melanoma; conditions: mouse, in vivo; cited from earlier work
[15] = tested on: pancreatic tumour; conditions: 4 patients with pancreatic tumour, phase I; cited from earlier work

## CC[C@H](C)[C@H]1NC(=O)[C@@H](NC(=O)[C@@H](CC(C)C)N(C)C(=O)[C@@H]2CCCN2C(=O)C(C)O)[C@@H](C)OC(=O)[C@H](Cc2ccc(OC)cc2)N(C)C(=O)[C@@H]2CCCN2C(=O)[C@H](CC(C)C)NC(=O)[C@@H](C)C(=O)[C@H](C(C)C)OC(=O)C[C@@H]1O (some centres unmarked) [didemnin B, reference compound]
[1]
  activity in SC implanted lewis lung carcinomas: Unlike didemnin B, aplidine was active

## CC[C@H](C)[C@H]1NC(=O)[C@@H](NC(=O)[C@@H](CC(C)C)N(C)C(=O)[C@@H]2CCCN2C(=O)C(C)=O)[C@@H](C)OC(=O)[C@H](Cc2ccc(OC)cc2)N(C)C(=O)[C@@H]2CCCN2C(=O)[C@H](CC(C)C)NC(=O)[C@@H](C)C(=O)[C@H](C(C)C)OC(=O)C[C@@H]1O [aplidine] (Pyruvoyl-P[dNMeL]T[X1]LP[NMeY](Me); ester 3-C)
[2]
  degradation under stress testing: substantial degradation
[3]; NP9
  active forms of caspases 3, 7 or 8 (Western blot): No active forms of caspases 3, 7 or 8 were detected
[3]; NP9, ORT
  FAK expression (Western blot): downregulation of FAK
  cyclin B1 and cyclin D1 expression (Western blot): decreased expression of cyclin B1 and cyclin D1
  macroscopic appearance, invasion by primary tumour: did not invade other organs of the peritoneum
  Solid tumour weight (g): 3.04 ± 1.04^f g
  Total tumour weight (g): 3.72 ± 1.09^b g
[3]; NP9, ORT treated
  foci of non-viable/necrotic cells, share of each tumour: 75-100%
[3]; NP9, ORT, viable tissue
  Ki67: downregulation
  apoptosis (Hoescht nuclear staining): significantly increased apoptosis
[3]; NP9, SC
  cyclin B1 and cyclin D1 levels (Western blot): no differences in cyclin B1 or cyclin D1 levels
  Solid tumour weight (g): 0.87 ± 0.44^e g
  Total tumour weight (g): 1.56 ± 0.8^a g
[3]; NP9, any site
  difference in total or solid tumour weight vs control: no significant differences
[3]; NP9, both tumour sites
  ERK activation (Western blot): ERK activation was unaltered
[4]; NP18
  size or macroscopic appearance of primary tumour: did not significantly change
[4]; NP18, ORT
  AKT activation (Western blot): Decrease AKT activation
  PARP cleavage (Western blot): PARP cleavage
  caspases 3, 7 and 8 (Western blot): activation of caspases 3, 7 and 8
  Total tumour weight (g): 9.34 ± 1.3^d g
[4]; NP18, ORT treated vs ORT control
  microscopic necrosis (H&E): significantly higher level of necrosis
[4]; NP18, ORT, viable tissue
  apoptosis (Hoescht nuclear staining): significantly increased apoptosis
[4]; NP18, SC
  AKT, caspases 3, 7, 8 and PARP regulation (Western blot): did not alter the regulation of any of these proteins
  Total tumour weight (g): 15.5 ± 5.3^c g
[4]; NP18, any site
  ERK activation (Western blot): No differences in ERK activation
  difference in total or solid tumour weight vs control: no significant differences
[5]; established metastases
  apoptotic nuclei per treated implant (Hoescht): 3-6
[5]; mouse, in vivo
  Caspase-3 activation and PARP cleavage in metastases: No activation of Caspase-3 nor PARP cleavage
  necrosis in peritoneal implants (H&E): did not contain necrotic areas
[5]; treatment initiated before dissemination, 0.8 mg/Kg q4d four weeks
  peritoneal implants: no peritoneal implants were observed in any animal
[5]; treatment started once metastases macroscopically evident
  diameter of peritoneal implants: less than 1 mm
[5]; treatment started once metastases macroscopically evident, 0.8 mg/Kg q4d three doses
  number of peritoneal implants per animal: 7-20
[5]; vs control metastases
  ERK activation in metastases: lower ERK activation
[6]
  inhibition of growth: 17%
[7]
  inhibition of growth: 47%
[8]
  cytotoxic activity: dose-dependent cytotoxic activity
[9]
  ornithine decarboxylase activity: decreased ornithine decarboxylase activity
[10]
  concentration to which cell lines were sensitive: >= 0.001 micromol/L
[11]; 2.1 mg/kg
  treated/control (T/C) tumour ratio: 9%
[11]; mice bearing human cancer xenografts
  maximum tolerated dose: 2.1 mg/kg
[12]
  T/C: 14%
[13]
  T/C: 25%
[14]
  activity against implanted tumours: active
  optimal dose: 160 micro/kg
[1]
  activity in SC implanted lewis lung carcinomas: active
[15]
  tumour response of patients: did not respond
